The supplement of paper PMC10307832

Legend:
Assay in all cases: relative viability (nuclei count vs DMSO), 5 days (fraction); higher = more cells survive
[1] = compound: CC1=C(C(=NN1)C)CC2=C(C3=C(S2)N(C(=O)N(C3=O)C)CC(C)C)C(=O)N4C[C@@H](CO4)O + NC(=O)Nc1cc(-c2cccc(F)c2)sc1C(=O)N[C@H]1CCCNC1 [AZD7762] (partner 0.2 µM)
Method in brief: (§1)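 Dosing by pin tool came one day after lung cancer cell lines were seeded in 1536-well plates, using either one drug or a fixed anchor-drug dose plus five library-drug doses (not always all listed) in √10 steps. After 5 days, nuclei were counted on 4× images. Relative viability is treated-well nuclei count divided by vehicle-well nuclei count, and values are medians of duplicate plates.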

IDH-C35 + Phenformin = compound: Cc1ccccc1C(C(=O)NC1CCCCC1)N(C(=O)Cn1ccnc1C)c1cccc(F)c1 [IDH-C35] + N=C(N)NC(=N)NCCc1ccccc1 [Phenformin] (partner 250 µM)
Method in brief: as §1

[2] = compound: CC1=C(C(=NN1)C)CC2=C(C3=C(S2)N(C(=O)N(C3=O)C)CC(C)C)C(=O)N4C[C@@H](CO4)O + Cc1cc(Nc2cc(N3CCN(C)CC3)nc(Sc3ccc(NC(=O)C4CC4)cc3)n2)n[nH]1 [Tozasertib] (partner 0.1 µM)
Method in brief: as §1

[3] = compound: CC1=C(C(=NN1)C)CC2=C(C3=C(S2)N(C(=O)N(C3=O)C)CC(C)C)C(=O)N4C[C@@H](CO4)O + Nc1nc2[nH]cc(CCc3ccc(C(=O)N[C@@H](CCC(=O)O)C(=O)O)cc3)c2c(=O)[nH]1 [Pemetrexed] (partner 0.2 µM)
Method in brief: as §1

Cell Line | relative viability ([1]; first compound 0.0025 µM) | relative viability ([1]; first compound 0.007906 µM) | relative viability ([1]; first compound 0.025 µM) | relative viability ([1]; first compound 0.07906 µM) | relative viability ([1]; first compound 0.25 µM) | relative viability (IDH-C35 + Phenformin; first compound 0.08 µM) | relative viability (IDH-C35 + Phenformin; first compound 0.253 µM) | relative viability (IDH-C35 + Phenformin; first compound 0.8 µM) | relative viability (IDH-C35 + Phenformin; first compound 2.53 µM) | relative viability (IDH-C35 + Phenformin; first compound 8 µM) | relative viability ([2]; first compound 0.0025 µM) | relative viability ([2]; first compound 0.007906 µM) | relative viability ([2]; first compound 0.025 µM) | relative viability ([2]; first compound 0.07906 µM) | relative viability ([2]; first compound 0.25 µM) | relative viability ([3]; first compound 0.0025 µM) | relative viability ([3]; first compound 0.007906 µM) | relative viability ([3]; first compound 0.025 µM) | relative viability ([3]; first compound 0.07906 µM) | relative viability ([3]; first compound 0.25 µM)
NCI-H1437 | 1.21 | 1.07 | 1.09 | 1.11 | 1.14 | 0.334 | 0.288 | 0.336 | 0.322 | 0.274 | 0.399 | 0.409 | 0.408 | 0.409 | 0.438 | 0.341 | 0.322 | 0.331 | 0.354 | 0.316
NCI-H1651 | 0.414 | 0.478 | 0.391 | 0.337 | 0.416 | 0.338 | 0.292 | 0.362 | 0.344 | 0.296 | 0.702 | 0.802 | 0.58 | 0.625 | 0.767 | 0.587 | 0.598 | 0.531 | 0.56 | 0.53
NCI-H1666 | 0.741 | 0.859 | 0.812 | 0.787 | 1.01 | 0.573 | 0.578 | 0.594 | 0.538 | 0.54 | 0.599 | 0.661 | 0.592 | 0.806 | 0.633 | 0.886 | 0.925 | 0.857 | 0.906 | 0.866
NCI-H1734 | 0.53 | 0.581 | 0.342 | 0.402 | 0.381 | 0.402 | 0.449 | 0.4 | 0.359 | 0.346 | 0.309 | 0.248 | 0.25 | 0.234 | 0.259 | 0.412 | 0.426 | 0.436 | 0.467 | 0.423
NCI-H1755 | 0.465 | 0.434 | 0.425 | 0.407 | 0.471 | 0.605 | 0.614 | 0.65 | 0.639 | 0.649 | 0.71 | 0.571 | 0.543 | 0.486 | 0.593 | 0.42 | 0.424 | 0.424 | 0.425 | 0.422
NCI-H1793 | 0.281 | 0.339 | 0.203 | 0.279 | 0.24 | 0.399 | 0.418 | 0.399 |  | 0.337 | 0.453 | 0.28 | 0.327 | 0.271 | 0.24 | 0.973 | 1.13 | 0.883 | 0.825 | 0.609
NCI-H1915 | 0.742 | 0.727 | 0.658 | 0.641 | 0.762 | 0.364 | 0.37 | 0.382 | 0.369 | 0.341 | 0.443 | 0.436 | 0.446 | 0.446 | 0.45 | 0.497 | 0.465 | 0.466 | 0.497 | 0.53
NCI-H1944 | 0.531 | 0.524 | 0.466 | 0.478 | 0.51 | 0.212 | 0.183 | 0.202 | 0.18 | 0.192 | 0.263 | 0.269 | 0.246 | 0.25 | 0.253 | 0.614 | 0.681 | 0.609 | 0.594 | 0.622
NCI-H1975 | 0.709 | 0.691 | 0.735 | 0.723 | 0.771 | 0.411 | 0.406 | 0.401 | 0.425 | 0.401 | 0.801 | 0.682 | 0.791 | 0.905 | 0.739 | 0.317 | 0.297 | 0.283 | 0.268 | 0.287
NCI-H1993 | 0.893 | 0.656 | 0.596 | 0.674 | 0.696 | 0.56 | 0.508 | 0.476 | 0.555 | 0.524 | 0.559 | 0.522 | 0.546 | 0.508 | 0.572 | 0.651 | 0.623 | 0.609 | 0.607 | 0.639
NCI-H2085 | 1.01 | 1.02 | 0.879 | 0.986 | 0.448 | 0.748 | 0.737 | 0.714 | 0.767 | 0.595 | 0.723 | 0.622 | 0.76 | 0.72 | 0.669 | 0.926 | 0.93 | 0.73 | 0.987 | 0.476
NCI-H2087 | 1.43 | 1.37 | 1.15 | 1.13 | 1.3 | 0.482 | 0.433 | 0.398 |  | 0.432 | 0.275 | 0.233 | 0.281 | 0.219 | 0.33 | 0.575 | 0.675 | 0.629 | 0.587 | 0.695
NCI-H2126 | 1.06 | 1.08 | 0.943 | 0.867 | 1.05 | 0.529 | 0.548 | 0.525 | 0.525 | 0.483 | 0.923 | 0.835 | 0.832 | 0.788 | 0.901 | 0.766 | 0.737 | 0.63 | 0.6 | 0.739
NCI-H2170 | 0.899 | 0.925 | 0.854 | 0.895 | 0.906 | 0.393 | 0.415 | 0.403 | 0.425 | 0.412 | 0.67 | 0.734 | 0.736 | 0.599 | 0.8 | 0.261 | 0.274 | 0.252 | 0.248 | 0.266
NCI-H2342 | 0.414 | 0.505 | 0.345 | 0.373 | 0.388 | 0.572 | 0.566 | 0.579 | 0.651 | 0.527 | 0.599 | 0.421 | 0.481 | 0.558 | 0.552 | 0.748 | 0.859 | 0.719 | 0.72 | 0.65
NCI-H2347 | 0.739 | 0.697 | 0.734 | 0.718 | 0.667 | 0.421 | 0.516 | 0.362 | 0.474 | 0.241 | 0.584 | 0.591 | 0.54 | 0.522 | 0.727 | 0.434 | 0.438 | 0.41 | 0.378 | 0.383
